Values of other authors in article PMC7984292 (Chemmedchem, 2020).
Several values for one entry are separate records, joined by “and”; a condition that tells them apart may be missing. Equal entries are not always repeated.

Experiments:
hDAT = hDAT (Homo sapiens, UniProt Q01959); conditions: read-out: IC50 hDAT; oxo isomers; taken from reference
[1] = not given; remark: listed apart in the source

hDAT, sequence (Q01959 whole entry): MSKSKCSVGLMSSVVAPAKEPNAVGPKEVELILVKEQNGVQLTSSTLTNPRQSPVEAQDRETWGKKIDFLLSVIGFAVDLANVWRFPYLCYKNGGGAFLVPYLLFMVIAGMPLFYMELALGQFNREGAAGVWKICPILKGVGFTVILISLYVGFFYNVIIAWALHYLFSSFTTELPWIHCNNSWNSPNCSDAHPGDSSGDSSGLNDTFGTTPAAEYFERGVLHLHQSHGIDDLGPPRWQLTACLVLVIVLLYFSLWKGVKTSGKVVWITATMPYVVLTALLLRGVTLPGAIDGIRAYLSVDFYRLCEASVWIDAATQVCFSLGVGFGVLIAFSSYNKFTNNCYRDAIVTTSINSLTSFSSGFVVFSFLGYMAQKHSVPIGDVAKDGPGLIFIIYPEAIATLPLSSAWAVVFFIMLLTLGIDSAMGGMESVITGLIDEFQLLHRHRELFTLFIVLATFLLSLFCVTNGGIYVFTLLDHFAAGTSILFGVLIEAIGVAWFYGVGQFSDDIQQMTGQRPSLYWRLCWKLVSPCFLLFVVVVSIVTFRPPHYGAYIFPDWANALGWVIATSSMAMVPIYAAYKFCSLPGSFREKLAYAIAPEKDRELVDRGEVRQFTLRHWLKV

CN1[C@H]2CC[C@@H]1[C@@H](CN(CC[S-])CC[N-]CC[S-])[C@@H](c1ccc(Cl)cc1)C2.[O]=[99Tc+4] [TRODAT‐1 6]
log P (value in parentheses = log P, literature value): (0.29±0.04) ^[29] | IC50 (hDAT): 8.42 nM and 13.9 nM

O=C(O)CN(CCN(CC(=O)O)Cc1ccccc1O)Cc1ccccc1O [HBED]
log K GaL (stability constant for the Ga3+ complex) [1]: 38.51

COC(=O)[C@H]1[C@@H](OC(=O)c2ccccc2)C[C@@H]2CC[C@H]1N2C [cocaine 1, cocaine]
log D 7.4 (pH 7.4): 1.31±0.01 ^[22]
